Test results as given in patent US20200399238A1, “THERAPEUTIC AURONES” (MIDDLE TENNESSEE STATE UNIVERSITY, priority 2016, published 2020).
Like-named read-outs stand apart in the source and are kept apart here.

Tests used:
[1] = system: rat skeletal muscle cell line, L6; experiment: cells; type: cell-based
[2] = system: Trypanosoma cruzi Tulahuen trypomastigotes; experiment: T. cruzi extracellular assay (CellTiter Glo); type: cell-based; details: for IC50: Trypanosoma cruzi, TULAHUEN; for Selectivity L6/Tc: T. cruzi IC50 from extracellular assay (^b); for Selectivity L6/Tc (T. cruzi value from extracellular assay): L6 IC50 / T. cruzi IC50 (extracellular assay)
[3] = system: Leishmania amazonensis promastigotes expressing beta-lactamase; experiment: microbe, parasite or virus in culture; type: cell-based
[4] = system: Trypanosoma brucei brucei 427 cells; experiment: T. brucei culture and assay (PrestoBlue); type: cell-based
[5] = system: Trypanosoma cruzi Tulahuen cells expressing beta-galactosidase; experiment: T. cruzi intracellular assay (beta-galactosidase, L6 host cells); details: Trypanosoma cruzi, TULAHUEN
[6] = system: C. albicans (ATCC strain 90028); experiment: Antifungal microdilution broth assay (PrestoBlue), C. albicans; type: cell-based, Candida albicans; details: Candida albicans, ATCC90028, Table 4B; C. albicans; 100 μM; value ± spread; read-out: Percent Inhibition (at 100 μM)
Description: Sigma-Aldrich) was used as the base medium for testing. […] solution of morpholinepropanesulfonic acid (MOPS; Sigma-Aldrich) was added to the RPMI to a final concentration of 0.165 M for buffering (RPMI-MOPS). This medium was adjusted to a pH of 7.0 with 10 M NaOH and filter sterilized. C. albicans (ATCC strain 90028), C. [NT] strain 66032), and C. tropicalis (ATCC strain 750) were cultured on potato dextrose agar (Sigma-Aldrich) plates, and incubated at 35° C. for 24 hours. For antifungal testing, overnight colonies were adjusted to 1.5×10^3 cells/mL, hereafter referred to as the test inoculum. PrestoBlue® (Life Technologies, Invitrogen, Carlsbad, Calif.), a resazurin-based cell viability reagent that, in metabolically active cells, is reduced from blue, non-fluorescent resazurin, to red, fluorescent resorufin, was used to assess inhibition of yeast growth by the aurones. […] Following addition of aurone, plates were then incubated for 24 hours at 35° C. PrestoBlue was added to a final concentration of 10% in each well and fluorescence read at 560 nm excitation and 590 nm emission, per manufacturer instructions, using a SpectraMax M2e spectrophotometer (Molecular Devices, LLC, Sunnyvale, Calif.). To optimize the PrestoBlue reduction time, RFUs were collected at 15 minute intervals for 4 hours using a reference antifungal. […] IC50 determination was calculated using GraphPad Prism version 7.01 for Windows (GraphPad Software, Inc., La Jolla, Calif.) from the RFUs at dilution points. Calculations were made with a nonlinear regression after transforming the molar concentrations of the aurones into the logarithmic form. Graphing was accomplished utilizing the same program following a four parameter curve fitting sigmoidal plot of the data. All aurones and controls were tested in triplicate and all testing was repeated in at least three independent experiments.

[7] = Rattus norvegicus, Table 1, read-out: IC50 Toxicity (L6)
[8] = Table 1, ^b extracellular T. cruzi assay, read-out: IC50 T. cruzi
[9] = Table 2, extracellular assay, read-out: IC50 T. cruzi (footnote b: Extracellular T. cruzi assay)
[10] = Leishmania amazonensis, read-out: IC50 L. amaz.
[11] = Trypanosoma brucei, Table 1, mean of 2(+) independent trials, read-out: IC50 T. brucei
[12] = Table 2, L6 mammalian cells, read-out: IC50 Toxicity (L6)
[13] = Table 2, L6 IC50 / L. amazonensis IC50
[14] = Table 2, mean of 2(+) independent trials, read-out: IC50 T. brucei
[15] = Table 2, L6 IC50 / T. brucei IC50
[16] = read-out: IC50 T. cruzi, Table 1, intracellular assay, mean of 2(+) trials (^c one trial)
[17] = read-out: IC50 T. cruzi, Table 2, intracellular assay, mean of 2(+) independent trials

Compound	IC50 [1, 7] [µM]	IC50 [2, 8] [µM]	IC50 [2, 9] [µM]	IC50 [3, 10] [µM]	IC50 [4, 11] [µM]	Selectivity L6/La ([3]; Table 1)	Selectivity L6/La [3, 13]	melting point [°C]	Selectivity L6/Tb ([4]; Table 1)	IC50 [5, 16] [µM]	IC50 [5, 17] [µM]	also measured
CC(=O)N1/C(=C\c2ccc(CO)o2)C(=O)c2ccccc21 [AA4A]	87	> 50	> 50	< 1	34.7	–	–	–	–	–	–	IC50 ([3]; Leishmania amazonensis, read-out: IC50 L. amaz. (footnote c: value obtained from one trial)): < 1 µM
O=C1/C(=C/c2cc(Br)cc(Br)c2O)Oc2ccccc21 [Aurone 3012, (Z)-2-(3,5-dibromo-2-hydroxybenzylidene)benzofuran-3(2H)-one]	> 100	40.1	40.1	1.21	> 50	>82.64	>82.64	–	–	–	–	IC50 ([5]; read-out: IC50 TC-I, Table 3A, weighted means of two or more independent trials): > 50 µM; IC50 ([1]; Rattus norvegicus, Table 3A, weighted means of two or more independent trials, read-out: IC50 L6): > 100 µM; IC50 [1, 12]: > 100 µM; Selectivity L6/Tc ([2]; Table 1): >2.49; Selectivity L6/Tc (T. cruzi value from extracellular assay) ([2]; Table 2): >2.49; IC50 [4, 14]: > 50 µM
Cc1ccc2c(c1)C(=O)/C(=C/c1ccc(C#N)cc1)O2 [Aurone 4001, (Z)-4-((5-methyl-3-oxobenzofuran-2(3H)-ylidene)methyl)benzonitrile]	76.2	31.7	31.7	38.4	2.66	1.98	1.98	148 to 152	28.66	–	–	Selectivity L6/Tc ([2]; Table 1): 2.40; Selectivity L6/Tc (T. cruzi value from extracellular assay) ([2]; Table 2): 2.40; Selectivity L6/Tb [4, 15]: 28.66
Cc1ccc2c(c1)C(=O)/C(=C/c1ccc(Br)cc1)O2 [Aurone 4002, (Z)-2-(4-bromobenzylidene)-5-methylbenzofuran-3(2H)-one]	> 100	> 50	–	19.7	42.8	>5.07	–	171 to 175	>2.34	–	–	–
COc1ccc(/C=C2\Oc3ccc(C)cc3C2=O)c(OC)c1OC [Aurone 4004, (Z)-5-methyl-2-(2,3,4-trimethoxybenzylidene)benzofuran-3(2H)-one]	43.9	> 50	> 50	4.04	19.7	10.86	10.86	74 to 78	2.23	–	–	Selectivity L6/Tb [4, 15]: 2.23
Cc1ccc2c(c1)C(=O)/C(=C/c1ccc(O)cc1)O2 [Aurone 4005, (Z)-2-(4-hydroxybenzylidene)-5-methylbenzofuran-3(2H)-one]	> 100	> 50	> 50	3.58	> 50	>27.93	>27.93	228 to 231	–	–	–	IC50 [1, 12]: > 100 µM; IC50 [4, 14]: > 50 µM
Cc1ccc2c(c1)C(=O)/C(=C/c1ccccc1C(F)(F)F)O2 [Aurone 4006, (Z)-5-methyl-2-(2-(trifluoromethyl)benzylidene)benzofuran-3(2H)-one]	72.9	15.8	15.8	9.7	30.2	7.52	7.52	121 to 124	2.41	–	–	Selectivity L6/Tc ([2]; Table 1): 4.62; Selectivity L6/Tc (T. cruzi value from extracellular assay) ([2]; Table 2): 4.62; Selectivity L6/Tb [4, 15]: 2.41
O=C1/C(=C/c2ccc(C(F)(F)F)cc2)Oc2ccc(Br)cc21 [Aurone 6001, (Z)-5-bromo-2-(4-(trifluoromethyl)benzylidene)benzofuran-3(2H)-one]	> 100	> 50	> 50	7.29	> 50	>13.72	>13.72	120 to 125	–	–	–	IC50 [1, 12]: > 100 µM; IC50 [4, 14]: > 50 µM
O=C1/C(=C/c2ccc(Br)cc2)Oc2ccc(Br)cc21 [Aurone 6002, (Z)-5-bromo-2-(4-bromobenzylidene)benzofuran-3(2H)-one]	> 100	> 50	–	11	42	>9.07	–	126 to 130	>2.38	–	–	–
N#Cc1ccc(/C=C2\Oc3ccc(Br)cc3C2=O)cc1 [Aurone 6003, (Z)-4-((5-bromo-3-oxobenzofuran-2(3H)-ylidene)methyl)benzonitrile]	> 100	> 50	> 50	1.22	17.1	>81.97	>81.97	–	>5.85	–	–	IC50 [1, 12]: > 100 µM; Selectivity L6/Tb [4, 15]: >5.85
N#Cc1ccc(/C=C2\Oc3cc(O)ccc3C2=O)cc1 [Aurone 9076, (Z)-4-((6-hydroxy-3-oxobenzofuran-2(3H)-ylidene)methyl)benzonitrile]	> 100	–	–	2.44	> 50	–	–	112 to 115	–	26.3	26.3	–
O=C1/C(=C/c2ccc(C(F)(F)F)cc2)Oc2ccccc21 [Aurone 9084, (Z)-2-(4-(trifluoromethyl)benzylidene)benzofuran-3(2H)-one]	> 400	–	–	2.94	20.4	–	–	98 to 102	–	9.38	9.38	–
O=C1/C(=C/c2cccc(C(F)(F)F)c2)Oc2ccccc21 [Aurone 9085, (Z)-2-(3-(trifluoromethyl)benzylidene)benzofuran-3(2H)-one]	73.4	–	–	4.43	> 50	–	–	128 to 133	–	11.1	11.1	–
O=C1/C(=C/c2ccccc2C(F)(F)F)Oc2ccccc21 [Aurone 9086, (Z)-2-(2-(trifluoromethyl)benzylidene)benzofuran-3(2H)-one]	130	–	–	1.9	37.6	–	–	118 to 123	–	18.5	18.5	–
O=C1/C(=C/c2ccccc2O)Oc2ccccc21 [Aurone 9088, (Z)-2-(2-hydroxybenzylidene)benzofuran-3(2H)-one]	> 100	–	–	9.54	> 50	–	–	215 to 216	–	18.4	18.4	inhibition at 100 µM [6]: 1 ± 1.1%
O=C1/C(=C/c2cccnc2)Oc2ccccc21 [Aurone 9253, (Z)-2-(pyridin-3-ylmethylene)benzofuran-3(2H)-one]	< 100	–	–	7.38	> 50	–	–	122 to 123	–	17.8	17.8	IC50 ([5]; read-out: IC50 TC-I, Table 3B, weighted means of two or more independent trials): 17.8 µM; IC50 ([1]; Rattus norvegicus, Table 3B, weighted means of two or more independent trials, read-out: IC50 L6): > 100 µM; IC50 ([4]; Trypanosoma brucei, read-out: IC50 TB): > 50 µM
N=C1/C(=C/c2ccccn2)Oc2ccc(F)cc21 [Aurone 9312, (Z)-5-fluoro-2-(pyridin-2-ylmethylene)benzofuran-3(2H)-imine]	> 200	> 50	> 50	< 1	> 50	>200	>200	–	–	–	–	IC50 [1, 12]: > 200 µM; IC50 ([3]; read-out: IC50 L. amaz., Table 2, mean of 2(+) independent trials): < 1 µM; IC50 [4, 14]: > 50 µM
O=C1/C(=C/c2ccc(CO)o2)Sc2ccccc21 [TA2]	> 200	> 50	> 50	< 1	11.4	–	–	–	–	–	–	–
